Experimental findings from PMC12699471 (RSC Advances, 2025) are described below.

What all share (assay type): cell-based, human
Assay [1] concerns MCF-7 cells. Nature of the assay: Microscopic analysis of cell morphology, MCF-7 cells. As to conditions: 48 h treatment; for cell morphology / cell death under the microscope: 10× magnification.
The next assay deals with MDA-MB-231 cells. The experiment in a line: MTT cell viability assay, MDA-MB-231 cells. As to conditions: for cell survival: MDA-MB-231 cells, 100 µM, 48 h, MTT.
Assay [2] concerns MCF-7 cells. Nature of the assay: MTT cell viability assay, MCF-7 cells.

Entries after “also recorded” stand apart in the source; their conditions may differ.

As to `CCOC(=O)C1=C(COCc2cn(C3OC(COC(C)=O)C(OC(C)=O)C(OC(C)=O)C3OC(C)=O)nn2)N=C2SC=CN2C1c1cccc(Cl)c1` (centres unmarked) [Compound 15], in the assay on MCF-7 cells [1], the “breast cancer cell inhibitory activity as concluded from microscopy” value (“breast cancer cell inhibitory activity” below) is on record as “highest breast cancer cell inhibitory activity” and the “cell morphology / cell death under the microscope” value (from here on “cell morphology / cell death”) is recorded as “mostly dead”.
In the case of `CCOC(=O)C1=C(COCc2cn(CCN3C(=O)C(=O)c4ccccc43)nn2)N=C2SC=CN2C1c1cccc(Cl)c1` (centres unmarked) [Compound 14a], the half-inhibitory concentration (IC50) is 42.3 ± 0.83 µM with MDA-MB-231 cells (Homo sapiens, MDA-MB-231) and 81.9 ± 2.26 µM with MCF-7 cells [2] (Homo sapiens, MCF7). For the same compound, the cell survival is recorded as 58% in the assay with MDA-MB-231 cells and roughly 52% with MCF-7 cells [2] (MCF-7 cells, 100 µM, 48 h, MTT). Besides, in the assay with MCF-7 cells [1], the “breast cancer cell inhibitory activity” value is reported as “highest breast cancer cell inhibitory activity”. Also, the “cell morphology / cell death” value with MCF-7 cells [1] is given as “mostly dead”.
Regarding `CCOC(=O)C1=C(COCc2cn(CCN3C(=O)C(=O)c4cc(Cl)ccc43)nn2)N=C2SC=CN2C1c1cccc(Cl)c1` (centres unmarked) [Compound 14c], in the assay on MCF-7 cells [1], the “breast cancer cell inhibitory activity” value was “highest breast cancer cell inhibitory activity” and the “cell morphology / cell death” value was “significant changes in their morphology; also recorded: mostly dead”.
`CC/C(=C(\c1ccccc1)c1ccc(OCCN(C)C)cc1)c1ccccc1` [Tamoxifen, tamoxifen, reference compound]: in the assay on MDA-MB-231 cells, the cell survival amounted to 63%. The “cell morphology / cell death” value with MCF-7 cells [1] is recorded as “significant changes in their morphology; also recorded: mostly dead”.
Take `CCOC(=O)C1=C(COCc2cn(CCN3C(=O)C(=O)c4cc(F)ccc43)nn2)N=C2SC=CN2C1c1cccc(Cl)c1` (centres unmarked) [Compound 14d]: in the assay on MCF-7 cells [1], the “breast cancer cell inhibitory activity” value is given as “not showing breast cancer cell growth inhibition” and the “cell morphology / cell death” value was “significant changes in their morphology”.
